This is an account of results in patent US20230286968A1, “ARYLOXAZOLO SPIRAL RING DERIVATIVES FOR THE TREATMENT AND PROPHYLAXIS OF HEPATITIS B VIRUS INFECTION” (Hoffmann-La Roche Inc., priority 2020, published 2023).

One may read the pIC50 as the negative decadic logarithm of the IC50, by convention in mol/L. What is called CC50 is the concentration at which the toxic effect on the cells reaches its halfway point. Read a low CC50 as harm at low concentration.

The subject of one data set is HBeAg. Put plainly: PHH natural infection assay, HBeAg (alphalisa). It counts as cell-based, HBV. As to conditions: Hepatitis B virus, Hepatocyte, read-out: HBeAg IC50, HBV-infected primary human hepatocytes, supernatant, alphalisa. As for the experimental part:
(§1) Detailed procedures regarding primary human hepatocyte (PHH) HBV natural infection assay are described as below. One tube of frozen PHH (10 million cells) is thawed in 37° C. water bath and then transferred to 20 mL of PHH thawing medium (Sigma, InVitroGRO HT Medium, Cat. S03319) with gently mixing. The cells were then centrifuged at […] for 5 min, the supernatant was discarded and the tube was refilled with 25 mL of PHH plating medium (Sigma, InVitroGRO CP Medium, Cat. S03317). The tube was shaken very gently to re-suspend all cells, and then 50 μL of cells were transferred to each well 384-well collagen I coated plate with appropriate liquid handling equipment, e.g. Integra VIAFLO384 or Agilent Bravo. The cells were then cultured for 24 hours in a cell incubator. For HBV infection, after PHH attachment on the culture plate, the plating medium was removed and replenished with PHH culture medium containing HBV virus. The PHH culture medium was prepared with Dulbecco's Modified Eagle Medium (DMEM)/F12 (1:1 in volume ratio) containing 10% fetal bovine serum (Gibco, Cat. 10099141), 5 ng/mL human epidermal growth factor (Gibco, Cat.PHG0311L), 20 ng/mL dexamethasone (Sigma, Cat.D4902-100 mg), 250 ng/mL human recombinant insulin (Gibco, Cat.41400045) and 100 U/mL penicillin. HBV virus at 200 genome equivalent (GE) per cell with 4% PEG8000 (Sigma, Cat.P1458) containing culture medium were added to the PHH culture medium for infection. The cells were then cultured for 24 hours in cell incubator. Then the cell culture supernatant was removed. The HBV-infected PHH were cultured with sandwich culture method with PHH culture medium containing […] and 0.25 mg/mL matrix gel for 72 hours. The supernatant was then refreshed with PHH culture medium containing different concentrations of testing compounds for two times with 72-hour interval. At the end of treatment, the supernatant was collected for viral markers measurements, including HBsAg, HBeAg, HBV DNA and cytotoxicity. HBsAg and HBeAg were detected using alphalisa method using their specific antibodies. For HBV DNA detection, HBV DNA Quantitative Fluorescence Diagnostic Kit (Sansure Biotech Inc.) was used following the manufacture's protocol. Cytotoxicity was determined using Cell Counting Kit-8 (CCK8, Dojindo Molecular Technologies, Inc.).
(§2) The compounds of the present invention were tested for their capacity to inhibit HBsAg and HBeAg as described herein.
On the technique in general: In Alpha technology, singlet oxygen from a donor bead excites a nearby acceptor bead.

A further data set concerns HBsAg. As to the kind of experiment: PHH natural infection assay, HBsAg (alphalisa). It counts as cell-based, HBV. As to conditions: Hepatitis B virus, Hepatocyte, read-out: HBsAg IC50, HBV-infected primary human hepatocytes, supernatant, alphalisa. As for the experimental part:
as §1, §2

Data set [1] in a line: Cytotoxicity in PHH natural infection assay (Cell Counting Kit-8). It counts as cell-based. The following applies: HBV-infected primary human hepatocytes, CCK8. As for the experimental part:
as §1
(In general: Tetrazolium dyes change colour on reduction, which living cells bring about.)

Structures are written as SMILES. pIC50: −log10 of the molar value. Bounds are passed on as bounds.

Consider `O=C(NC1CC2(C1)CC(c1nc3cc(Cl)ccc3o1)C2)c1ccnc(-c2nccs2)c1` (stereo not drawn) [Example 16, N-[6-(5-chloro-1,3-benzoxazol-2-yl)spiro[3.3]heptan-2-yl]-2-thiazol-2-yl-pyridine-4-carboxamide], for which the figures for the pIC50 in the data set with HBeAg and in the data set with HBsAg were 5.33 and 5.24, respectively. In data set [1], this molecule yielded a half-maximal cytotoxic concentration (CC50) at 144 h of more than 10 µM.
The corresponding values for `CS(=O)(=O)c1cncc(C(=O)NC2CC3(C2)CC(c2nc4cc(Cl)ccc4o2)C3)c1` (stereo not drawn) [Example 24, N-[6-(5-chloro-1,3-benzoxazol-2-yl)spiro[3.3]heptan-2-yl]-5-methylsulfonyl-pyridine-3-carboxamide] are 5.43, 5.22 and more than 100 µM.
The corresponding values for `O=C(CCCS(=O)(=O)NC(=O)C1CCC1)NC1CC2(C1)CC(c1nc3cc(Cl)ccc3o1)C2` (stereo not drawn) [Example 81, N-[4-[[6-(5-chloro-1,3-benzoxazol-2-yl)spiro[3.3]heptan-2-yl]amino]-4-oxo-butyl]sulfonylcyclobutanecarboxamide] are 5.22, 5.34 and more than 10 µM.
For `O=C(NCC1CC(O)C1)NC1CC2(C1)CC(c1nc3cc(Cl)ccc3o1)C2` (stereo not drawn) [Example 64, 1-[6-(5-chloro-1,3-benzoxazol-2-yl)spiro[3.3]heptan-2-yl]-3-[(3-hydroxycyclobutyl)methyl]urea], the negative-log IC50 (pIC50) is 5.35 with HBeAg and 5.25 in the data set with HBsAg. In data set [1], the CC50 at 144 h came out at 84.8 µM.
The corresponding values for `CN(C)C(=O)c1cc(C(=O)NC2CC3(C2)CC(c2nc4cc(Cl)ccc4o2)C3)ccn1` (stereo not drawn) [Example 103, N4-[6-(5-chloro-1,3-benzoxazol-2-yl)spiro[3.3]heptan-2-yl]-N2,N2-dimethyl-pyridine-2,4-dicarboxamide] are 5.40, 5.25 and more than 10 µM.
The corresponding values for `CC(C)(C)C(=O)NC1CC2(C1)CC(c1nc3cc(Cl)ccc3o1)C2` (stereo not drawn) [Example 27, N-[6-(5-chloro-1,3-benzoxazol-2-yl)spiro[3.3]heptan-2-yl]-2,2-dimethyl-propanamide] are 5.01, 5.01 and more than 100 µM.
In the case of `CCNC(=O)NC1CC2(C1)CC(c1nc3cc(Cl)ccc3o1)C2` (stereo not drawn) [Example 59, 1-[6-(5-chloro-1,3-benzoxazol-2-yl)spiro[3.3]heptan-2-yl]-3-ethyl-urea], the pIC50 is 5.40 in the data set on HBeAg and 5.07 in the data set with HBsAg. In data set [1], this molecule displayed a CC50 at 144 h of more than 100 µM.
Taken in the same sequence, the figures for `CC(C)Oc1cc(C(=O)NC2CC3(C2)CC(c2nc4cc(Cl)ccc4o2)C3)ccn1` (stereo not drawn) [Example 20, N-[6-(5-chloro-1,3-benzoxazol-2-yl)spiro[3.3]heptan-2-yl]-2-isopropoxy-pyridine-4-carboxamide] were 5.90, 5.72 and more than 10 µM.
The corresponding values for `COc1cc(C(=O)NC2CC3(C2)CC(c2nc4cc(Cl)ccc4o2)C3)ccn1` (stereo not drawn) [Example 17, N-[6-(5-chloro-1,3-benzoxazol-2-yl)spiro[3.3]heptan-2-yl]-2-methoxy-pyridine-4-carboxamide] are 5.35, 5.26 and more than 10 µM.
Taken in the same sequence, the figures for `O=C(NC1CC2(C1)CC(c1nc3cc(Cl)ccc3o1)C2)N1CCS(=O)(=O)CC1` (stereo not drawn) [Example 68, N-[6-(5-chloro-1,3-benzoxazol-2-yl)spiro[3.3]heptan-2-yl]-1,1-dioxo-1,4-thiazinane-4-carboxamide] were 5.39, 5.18 and more than 100 µM.
For `CC(=O)NS(=O)(=O)c1cc(C(=O)NC2CC3(C2)CC(c2nc4cc(Cl)ccc4o2)C3)ccn1` (stereo not drawn) [Example 99, 2-(Acetylsulfamoyl)-N-[6-(5-chloro-1,3-benzoxazol-2-yl)spiro[3.3]heptan-2-yl]pyridine-4-carboxamide], the pIC50 with HBeAg is 5.88; in the data set with HBsAg, 5.68. Moreover, in data set [1], the 50% cytotoxic concentration (CC50) at 144 h is more than 10 µM.
As for `O=C(CC1CCCS(=O)(=O)C1)NC1CC2(C1)CC(c1nc3cc(Cl)ccc3o1)C2` (stereo not drawn) [Example 55, N-[6-(5-chloro-1,3-benzoxazol-2-yl)spiro[3.3]heptan-2-yl]-2-(1,1-dioxothian-3-yl)acetamide], the figures for the pIC50 with HBeAg and in the data set on HBsAg were 5.59 and 5.47, respectively. For the same molecule, in data set [1], the CC50 at 144 h came out at 78.9 µM.
Taken in the same sequence, the figures for `CC(C)(C)N1CC(C(=O)NC2CC3(C2)CC(c2nc4cc(Cl)ccc4o2)C3)CC1=O` (stereo not drawn) [Example 31, 1-tert-butyl-N-[6-(5-chloro-1,3-benzoxazol-2-yl)spiro[3.3]heptan-2-yl]-5-oxo-pyrrolidine-3-carboxamide] were 5.28, 5.10 and more than 100 µM.
The corresponding values for `NS(=O)(=O)c1cc(C(=O)NC2CC3(C2)CC(c2nc4cc(Cl)ccc4o2)C3)ccn1` (stereo not drawn) [Example 19, N-[6-(5-chloro-1,3-benzoxazol-2-yl)spiro[3.3]heptan-2-yl]-2-sulfamoyl-pyridine-4-carboxamide] are 5.91, 5.65 and more than 10 µM.
The corresponding values for `N=C(NO)c1cc(C(=O)NC2CC3(C2)CC(c2nc4cc(Cl)ccc4o2)C3)ccn1` (stereo not drawn) [Example 95, N-[6-(5-chloro-1,3-benzoxazol-2-yl)spiro[3.3]heptan-2-yl]-2-(N-hydroxycarbamimidoyl)pyridine-4-carboxamide] are 5.20, 5.08 and more than 10 µM.
Turning to `Cc1cnc(-c2cc(C(=O)NC3CC4(C3)CC(c3nc5cc(Cl)ccc5o3)C4)ccn2)s1` (stereo not drawn) [Example 15, N-[6-(5-chloro-1,3-benzoxazol-2-yl)spiro[3.3]heptan-2-yl]-2-(5-methylthiazol-2-yl)pyridine-4-carboxamide], the pIC50 was 5.83 with HBeAg and 5.65 in the data set with HBsAg. In data set [1], this molecule displayed a CC50 at 144 h of more than 10 µM.
As for `O=C(CN1CCCCS1(=O)=O)NC1CC2(C1)CC(c1nc3cc(Cl)ccc3o1)C2` (stereo not drawn) [Example 56, N-[6-(5-chloro-1,3-benzoxazol-2-yl)spiro[3.3]heptan-2-yl]-2-(1,1-dioxothiazinan-2-yl)acetamide], the values for the negative-log IC50 (pIC50) with HBeAg and in the data set with HBsAg were 5.69 and 5.64, respectively. The molecule further showed a CC50 at 144 h in data set [1] of more than 100 µM.
The corresponding values for `CS(=O)(=O)N1CC(CC(=O)NC2CC3(C2)CC(c2nc4cc(Cl)ccc4o2)C3)C1` (stereo not drawn) [Example 77, N-[6-(5-chloro-1,3-benzoxazol-2-yl)spiro[3.3]heptan-2-yl]-2-(1-methylsulfonylazetidin-3-yl)acetamide] are 5.36, 5.15 and more than 10 µM.
Regarding `O=C(NC1CC2(C1)CC(c1nc3cc(Cl)ccc3o1)C2)C1CS(=O)(=O)C1` (stereo not drawn) [Example 49, N-[6-(5-chloro-1,3-benzoxazol-2-yl)spiro[3.3]heptan-2-yl]-1,1-dioxo-thietane-3-carboxamide], the negative-log IC50 (pIC50) with HBeAg is 5.58; with HBsAg, 5.49. For the same molecule, the 50% cytotoxic concentration (CC50) at 144 h in data set [1] stood at 96.1 µM.
Taken in the same sequence, the figures for `O=C(NC1CC2(C1)CC(c1nc3cc(Cl)ccc3o1)C2)c1ccnc(N2CCOCC2)c1` (stereo not drawn) [Example 9, N-[6-(5-chloro-1,3-benzoxazol-2-yl)spiro[3.3]heptan-2-yl]-2-morpholino-pyridine-4-carboxamide] were 5.36, 5.42 and more than 10 µM.
Taken in the same sequence, the figures for `CC(=O)N1CCC(C(=O)NC2CC3(C2)CC(c2nc4cc(Cl)ccc4o2)C3)C1` (stereo not drawn) [Example 73, 1-acetyl-N-[6-(5-chloro-1,3-benzoxazol-2-yl)spiro[3.3]heptan-2-yl]pyrrolidine-3-carboxamide] were 5.19, 5.04 and more than 10 µM.
The corresponding values for `N=C(N)c1cc(C(=O)NC2CC3(C2)CC(c2nc4cc(Cl)ccc4o2)C3)ccn1` (stereo not drawn) [Example 96, 2-Carbamimidoyl-N-[6-(5-chloro-1,3-benzoxazol-2-yl)spiro[3.3]heptan-2-yl]pyridine-4-carboxamide] are 5.25, 5.12 and more than 10 µM.
